Reference: patent US7572786B2, “Substituted 1-piperidin-3-yl-4-piperidin-4-yl-piperazine derivatives and their use as neurokinin antagonists” (Janssen Pharmaceutica, N.V., priority 2002, dated 2009)

Tests used:
Type in all cases: cell-based
NK1 = NK1 (Homo sapiens, UniProt P25103); assay: Signal transduction (ST), intracellular Ca++ (FLIPR), NK1 antagonism; conditions: for IC50: read-out: pIC50 NK1 (converted)
Outline: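 Confluent cells were loaded with 2 μM Fluo3 with probenecid for 1 h at 37°C, then preincubated with antagonist concentration ranges for 20 min at RT before agonist addition. Peak FLIPR calcium transient was taken as signal; IC50 from non-linear regression of sigmoidal curves.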

NK2 = molecular target: T1, NK2 (Homo sapiens, UniProt P21452); assay: Signal transduction (ST), intracellular Ca++ (FLIPR), NK2; conditions: for IC50: read-out: pIC50 NK2 (converted)
T1 sequence (P21452 1-398): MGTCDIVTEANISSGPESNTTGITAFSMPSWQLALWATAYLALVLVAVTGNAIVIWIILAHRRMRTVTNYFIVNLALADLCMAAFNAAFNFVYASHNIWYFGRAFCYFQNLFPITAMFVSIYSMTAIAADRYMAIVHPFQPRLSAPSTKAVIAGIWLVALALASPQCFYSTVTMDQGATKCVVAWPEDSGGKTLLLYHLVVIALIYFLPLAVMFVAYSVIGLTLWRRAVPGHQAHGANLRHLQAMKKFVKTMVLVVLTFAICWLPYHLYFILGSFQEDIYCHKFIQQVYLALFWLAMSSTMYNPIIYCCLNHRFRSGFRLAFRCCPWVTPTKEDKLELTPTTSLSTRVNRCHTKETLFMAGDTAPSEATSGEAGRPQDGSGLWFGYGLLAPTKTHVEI

NK3 = molecular target: T2, NK3 (Homo sapiens, UniProt P29371); assay: Signal transduction (ST), intracellular Ca++ (FLIPR), NK3; conditions: for IC50: read-out: pIC50 NK3 (converted)
T2 sequence (P29371 1-465): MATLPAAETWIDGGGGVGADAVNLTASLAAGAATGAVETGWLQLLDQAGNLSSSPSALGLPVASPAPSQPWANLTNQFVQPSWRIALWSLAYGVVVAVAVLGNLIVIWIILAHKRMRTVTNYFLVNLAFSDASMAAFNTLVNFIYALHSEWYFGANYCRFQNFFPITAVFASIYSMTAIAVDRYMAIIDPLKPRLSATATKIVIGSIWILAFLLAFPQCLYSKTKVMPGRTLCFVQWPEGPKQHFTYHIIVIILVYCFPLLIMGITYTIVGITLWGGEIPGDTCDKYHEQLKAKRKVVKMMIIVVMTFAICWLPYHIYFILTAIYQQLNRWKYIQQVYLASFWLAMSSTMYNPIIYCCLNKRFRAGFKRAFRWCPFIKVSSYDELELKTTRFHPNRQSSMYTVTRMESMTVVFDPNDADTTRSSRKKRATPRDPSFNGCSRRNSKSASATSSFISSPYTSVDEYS

Chain of NK1 (P25103 whole entry): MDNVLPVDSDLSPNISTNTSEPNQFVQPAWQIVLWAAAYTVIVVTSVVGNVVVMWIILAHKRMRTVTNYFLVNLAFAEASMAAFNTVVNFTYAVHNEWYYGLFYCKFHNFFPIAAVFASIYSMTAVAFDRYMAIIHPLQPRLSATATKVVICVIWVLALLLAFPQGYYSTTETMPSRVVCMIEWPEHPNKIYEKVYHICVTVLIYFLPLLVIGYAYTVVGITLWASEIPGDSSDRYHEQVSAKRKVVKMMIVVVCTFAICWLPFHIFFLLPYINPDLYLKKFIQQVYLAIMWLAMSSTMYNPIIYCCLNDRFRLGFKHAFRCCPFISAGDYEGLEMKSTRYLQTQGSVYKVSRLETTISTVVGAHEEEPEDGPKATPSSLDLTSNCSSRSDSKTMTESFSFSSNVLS

SMILES	IC50 (NK1) [nM]	IC50 (NK2) [nM]	IC50 (NK3) [nM]	pIC50 NK1 (NK1)	pIC50 NK2 (NK2)	pIC50 NK3 (NK3)
O=C(c1cc(C(F)(F)F)cc(C(F)(F)F)c1)N1CC[C@H](N2CCN(C3CCCN(S(=O)(=O)c4cccc(O)c4)C3)CC2)C[C@H]1Cc1ccccc1 (stereo partly drawn) [Compound 80]	10	794	501			
O=C(OCc1ccccc1C(=O)N1CCCC(N2CCN([C@H]3CCN(C(=O)c4cc(C(F)(F)F)cc(C(F)(F)F)c4)[C@H](Cc4ccccc4)C3)CC2)C1)c1ccccc1 (stereo partly drawn) [Compound 82]	63.1	3160	7940			
O=C(c1cc(C(F)(F)F)cc(C(F)(F)F)c1)N1CC[C@H](N2CCN(C3CCCN(S(=O)(=O)c4ccc(CCOCc5ccccc5)s4)C3)CC2)C[C@H]1Cc1ccccc1 (stereo partly drawn) [Compound 84]	251	501	1260			
O=C(c1cc(COCc2ccccc2)cs1)N1CCCC(N2CCN([C@H]3CCN(C(=O)c4cc(C(F)(F)F)cc(C(F)(F)F)c4)[C@H](Cc4ccccc4)C3)CC2)C1 (stereo partly drawn) [Compound 85]	79.4	3980	5010			
O=C(c1cc(C(F)(F)F)cc(C(F)(F)F)c1)N1CC[C@H](N2CCN(C3CCCN(S(=O)(=O)c4ccc(CCO)s4)C3)CC2)C[C@H]1Cc1ccccc1 (stereo partly drawn) [Compound 86]				8.2	6.4	6.3
O=C(c1cc(C(F)(F)F)cc(C(F)(F)F)c1)N1CC[C@H](N2CCN(C3CCCN(S(=O)(=O)c4ccc(COCc5ccccc5)s4)C3)CC2)C[C@H]1Cc1ccccc1 (stereo partly drawn) [Compound 87]	316	794	7940			
O=C(c1sccc1COCc1ccccc1)N1CCCC(N2CCN([C@H]3CCN(C(=O)c4cc(C(F)(F)F)cc(C(F)(F)F)c4)[C@H](Cc4ccccc4)C3)CC2)C1 (stereo partly drawn) [Compound 88]	39.8	2510	631			
O=C(c1cc(C(F)(F)F)cc(C(F)(F)F)c1)N1CC[C@H](N2CCN(C3CCCN(C(CO)c4ccccc4Cl)C3)CC2)C[C@H]1Cc1ccccc1 (stereo partly drawn) [Compound 89]	63.1	5010	7940			
O=C(c1cc(CCOCc2ccccc2)cs1)N1CCCC(N2CCN([C@H]3CCN(C(=O)c4cc(C(F)(F)F)cc(C(F)(F)F)c4)[C@H](Cc4ccccc4)C3)CC2)C1 (stereo partly drawn) [Compound 99]				6.7	5.2	5.5

More lines, main results first:

IC50 (NK1) [nM]	IC50 (NK2) [nM]	IC50 (NK3) [nM]	SMILES	pIC50 NK1 (NK1)	pIC50 NK2 (NK2)	pIC50 NK3 (NK3)
10	1000	3980	CC(C)N/C(=N\C#N)N1CCCC(N2CCN(C3CCN(C(=O)c4cc(C(F)(F)F)cc(C(F)(F)F)c4)C(Cc4ccccc4)C3)CC2)C1 (stereo not drawn) [Compound 91]			
12.6	501	158	O=C(c1cc(C(F)(F)F)cc(C(F)(F)F)c1)N1CC[C@H](N2CCN(C3CCCN(S(=O)(=O)c4ccc(CO)s4)C3)CC2)C[C@H]1Cc1ccccc1 (stereo partly drawn) [Compound 92]			
20	3980	1000	COc1ccc(NC(=NC#N)N2CCCC(N3CCN([C@H]4CCN(C(=O)c5cc(C(F)(F)F)cc(C(F)(F)F)c5)[C@H](Cc5ccccc5)C4)CC3)C2)cc1 (stereo partly drawn) [Compound 94]			
31.6	3160	1260	COc1ccc(S(=O)(=O)N2CCCC(N3CCN([C@H]4CCN(C(=O)c5cc(C(F)(F)F)cc(C(F)(F)F)c5)[C@H](Cc5ccccc5)C4)CC3)C2)s1 (stereo partly drawn) [Compound 95]			
15.8	398	100	O=C(c1cc(C(F)(F)F)cc(C(F)(F)F)c1)N1CCC(N2CCN(C3CCCN(S(=O)(=O)c4cc(CCO)cs4)C3)CC2)CC1Cc1ccccc1 (stereo not drawn) [Compound 96]			
10	3980	2510	O=C(c1sccc1CO)N1CCCC(N2CCN([C@H]3CCN(C(=O)c4cc(C(F)(F)F)cc(C(F)(F)F)c4)[C@H](Cc4ccccc4)C3)CC2)C1 (stereo partly drawn) [Compound 97]			
12.6	5010	2000	O=C(c1ccc(CCO)s1)N1CCCC(N2CCN(C3CCN(C(=O)c4cc(C(F)(F)F)cc(C(F)(F)F)c4)C(Cc4ccccc4)C3)CC2)C1 (stereo not drawn) [Compound 98]			
126	1260	316	O=C(c1cc(C(F)(F)F)cc(C(F)(F)F)c1)N1CC[C@H](N2CCN(C3CCCN(S(=O)(=O)c4csc(COCc5ccccc5)c4)C3)CC2)C[C@H]1Cc1ccccc1 (stereo partly drawn) [Compound 104]			
398	5010	2510	CC(=O)OCC(c1ccccc1Cl)N1CCCC(N2CCN(C3CCN(C(=O)c4cc(C(F)(F)F)cc(C(F)(F)F)c4)C(Cc4ccccc4)C3)CC2)C1 (stereo not drawn) [Compound 124]			
